{"source": "ChEMBL document CHEMBL6074689", "about": "(Eur J Med Chem, 2025)", "key": {"[1]": {"test": "Metal chelating activity assessed as compound-Cu2+ complex formation by measuring increase in absorption intensity at 300 uM in presence of by UV-vis spectrometry"}, "[2]": {"test": "Toxicity in Drosophila melanogaster Oregon R-positive assessed as reduction in eclosed flies at 40 uM measured for 15 days relative to control", "design": "scale not given: the % may be the effect or the level left", "settings": "360 h, time 15 day"}, "[3]": {"target": "Amyloid-beta precursor protein (Homo sapiens) (UniProt P05067)", "sequence (P05067 whole entry)": "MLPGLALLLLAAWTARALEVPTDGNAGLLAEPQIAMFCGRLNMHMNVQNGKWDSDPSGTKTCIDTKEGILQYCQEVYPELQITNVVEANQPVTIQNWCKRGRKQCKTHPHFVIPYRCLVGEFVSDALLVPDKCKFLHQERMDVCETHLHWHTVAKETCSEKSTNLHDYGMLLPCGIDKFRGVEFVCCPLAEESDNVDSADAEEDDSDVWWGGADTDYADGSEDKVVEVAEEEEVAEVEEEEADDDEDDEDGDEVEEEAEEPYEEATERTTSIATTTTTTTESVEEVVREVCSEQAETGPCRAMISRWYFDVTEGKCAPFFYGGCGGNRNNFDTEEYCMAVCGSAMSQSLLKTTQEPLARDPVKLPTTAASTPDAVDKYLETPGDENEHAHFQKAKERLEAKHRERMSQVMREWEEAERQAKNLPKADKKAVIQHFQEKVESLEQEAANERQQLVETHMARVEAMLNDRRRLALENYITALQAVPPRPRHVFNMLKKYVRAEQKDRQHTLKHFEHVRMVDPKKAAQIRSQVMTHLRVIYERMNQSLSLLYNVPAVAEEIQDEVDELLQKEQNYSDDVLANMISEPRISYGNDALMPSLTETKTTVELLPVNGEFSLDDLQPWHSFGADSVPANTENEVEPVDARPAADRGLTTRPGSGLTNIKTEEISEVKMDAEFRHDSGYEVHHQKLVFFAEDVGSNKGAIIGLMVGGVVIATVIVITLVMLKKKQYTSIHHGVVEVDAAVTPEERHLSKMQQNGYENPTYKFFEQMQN", "test": "Inhibition of amyloid beta (1 to 42) (unknown origin) self induced aggregation at 1.521 uM incubated for 72 hrs by transmission electron microscopic analysis"}, "Drosophila melanogaster [4]": {"system": "Drosophila melanogaster", "test": "Anti-alzheimer activity in ey-GAL4 driven UAS-amyloid beta (1 to 42) induced Drosophila melanogaster Oregon R-positive assessed as rescued eye phenotype at 40 uM by Stereo zoom microscopic imaging analysis relative to control", "format": "functional"}, "Mus musculus [5]": {"system": "Mus musculus", "test": "Antioxidant activity against scopolamine-induced Swiss albino mouse model assessed as increase in MDA level at 0.3 to 0.5 mg/kg, po by absorbance based analysis", "format": "functional, organism-based", "settings": "dose 0.3-0.5 mg/kg"}, "Mus musculus [6]": {"system": "Mus musculus", "test": "Neuroprotective activity against scopolamine-induced Swiss albino mouse model assessed as increase in CREB1 mRNA level at 0.3 to 0.5 mg/kg, po measured after 6 days by RT-PCR analysis", "format": "functional, organism-based", "settings": "dose 0.3-0.5 mg/kg, time 6.0 day"}, "Acetylcholinesterase [7]": {"target": "T1, Acetylcholinesterase (Homo sapiens, UniProt P22303)", "T1 sequence (P22303 whole entry)": "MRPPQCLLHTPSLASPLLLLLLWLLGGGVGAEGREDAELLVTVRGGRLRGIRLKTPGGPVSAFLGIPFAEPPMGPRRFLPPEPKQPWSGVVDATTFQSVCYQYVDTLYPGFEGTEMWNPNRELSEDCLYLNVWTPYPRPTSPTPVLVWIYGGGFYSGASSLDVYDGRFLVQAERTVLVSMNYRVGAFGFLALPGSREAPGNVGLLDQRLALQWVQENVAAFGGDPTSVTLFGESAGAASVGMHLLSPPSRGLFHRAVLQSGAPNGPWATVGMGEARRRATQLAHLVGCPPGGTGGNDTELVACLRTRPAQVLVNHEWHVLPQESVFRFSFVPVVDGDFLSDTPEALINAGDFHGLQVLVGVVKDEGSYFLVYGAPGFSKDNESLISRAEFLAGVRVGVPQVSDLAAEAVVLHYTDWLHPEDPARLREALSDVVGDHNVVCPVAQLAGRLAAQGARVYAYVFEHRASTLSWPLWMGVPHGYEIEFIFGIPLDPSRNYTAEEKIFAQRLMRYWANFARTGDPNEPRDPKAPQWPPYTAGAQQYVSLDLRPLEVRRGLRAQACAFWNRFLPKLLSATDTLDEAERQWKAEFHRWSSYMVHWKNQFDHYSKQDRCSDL", "test": "Displacement of propidium iodide from human AChE PAS assessed as reduction in fluorescence intensity at 5 uM incubated for 6 hrs by fluorescence based analysis relative to control", "design": "scale not given: the % may be the effect or the level left"}, "PC-12 [8]": {"system": "PC-12", "test": "Cytotoxicity against rat PC-12 cells assessed as cell viability upto 20 uM measured for 24 hrs by MTT assay", "format": "toxicity, cell-based", "settings": "pc-12, 24 h"}, "Mus musculus [9]": {"system": "Mus musculus", "test": "Neuroprotective activity against scopolamine-induced Swiss albino mouse model assessed as upregulation of MMP9 mRNA level at 0.3 to 0.5 mg/kg, po measured after 6 days by RT-PCR analysis", "format": "functional, organism-based", "settings": "dose 0.3-0.5 mg/kg, time 6.0 day"}, "Drosophila melanogaster [10]": {"system": "Drosophila melanogaster", "test": "Anti-alzheimer activity in ey-GAL4 driven UAS-amyloid beta (1 to 42) induced Drosophila melanogaster Oregon R-positive assessed as rescued eye phenotype at 10 uM by Stereo zoom microscopic imaging analysis relative to control", "format": "functional"}, "PC-12 [11]": {"system": "PC-12", "test": "Neuroprotective activity against H2O2-induced oxidative stress in rat PC-12 cells assessed as cell viability at 1 to 20 uM preincubated with compound for 24 hrs and followed by H2O2 induction and measured after 24 hrs by MTT assay", "format": "functional, cell-based", "settings": "dose 1-20 µM, time 48.0 hrs"}, "Cholinesterase": {"target": "Cholinesterase (Equus caballus, UniProt P81908)", "sequence (P81908 whole entry)": "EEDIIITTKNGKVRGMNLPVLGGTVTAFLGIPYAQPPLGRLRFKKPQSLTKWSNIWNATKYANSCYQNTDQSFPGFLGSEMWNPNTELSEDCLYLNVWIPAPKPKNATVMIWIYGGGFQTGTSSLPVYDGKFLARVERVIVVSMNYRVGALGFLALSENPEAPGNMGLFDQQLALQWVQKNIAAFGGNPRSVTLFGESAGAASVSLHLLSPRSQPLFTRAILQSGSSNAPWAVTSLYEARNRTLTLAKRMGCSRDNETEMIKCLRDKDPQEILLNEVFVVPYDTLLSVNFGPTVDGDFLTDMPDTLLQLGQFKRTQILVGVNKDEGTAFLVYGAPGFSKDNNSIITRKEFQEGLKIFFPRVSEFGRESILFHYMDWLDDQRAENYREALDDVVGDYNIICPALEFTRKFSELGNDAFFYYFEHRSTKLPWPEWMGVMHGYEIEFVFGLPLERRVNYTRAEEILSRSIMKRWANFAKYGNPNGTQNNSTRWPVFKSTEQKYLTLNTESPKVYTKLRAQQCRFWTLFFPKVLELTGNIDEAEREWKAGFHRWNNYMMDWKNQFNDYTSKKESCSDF", "test": "Inhibition of equine serum BChE using acetylthiocholine iodide as substrate preincubated with compound for 30 mins followed by substrate addition and measured after 30 mins by DTNB reagent based Ellman's method"}, "Mus musculus [12]": {"system": "Mus musculus", "test": "Antialzheimer activity in scopolamine-induced Swiss albino mouse model assessed as reduction in BChE level at 0.3 to 0.5 mg/kg, po preincubated with compound for 30 mins followed by scopolamine induction and measured after 30 mins", "format": "functional, organism-based", "settings": "dose 0.3-0.5 mg/kg, time 1.0 hrs"}, "Mus musculus [13]": {"system": "Mus musculus", "test": "Antialzheimer activity in scopolamine-induced Swiss albino mouse model assessed as decrease in escape latency at 0.3 to 0.5 mg/kg, po preincubated with compound for 30 mins followed by scopolamine induction and measured after 5 days by Morris water maze test", "format": "functional, organism-based", "settings": "dose 0.3-0.5 mg/kg, time 7230.0 min"}, "Mus musculus [14]": {"system": "Mus musculus", "test": "Neuroprotective activity against scopolamine-induced Swiss albino mouse model assessed as effect on GAP43 mRNA level at 0.3 to 0.5 mg/kg, po measured after 6 days by RT-PCR analysis", "format": "functional, organism-based", "settings": "dose 0.3-0.5 mg/kg, time 6.0 day"}, "Drosophila melanogaster [15]": {"system": "Drosophila melanogaster", "test": "Anti-alzheimer activity in ey-GAL4 driven UAS-amyloid beta (1 to 42) induced Drosophila melanogaster Oregon R-positive assessed as mild eye phenotype at 10 to 20 uM by Stereo zoom microscopic imaging analysis relative to control", "format": "functional", "settings": "dose 10-20 µM"}, "Mus musculus [16]": {"system": "Mus musculus", "test": "Antioxidant activity against scopolamine-induced Swiss albino mouse model assessed as increase in SOD level at 0.3 to 0.5 mg/kg, po by absorbance based analysis", "format": "functional, organism-based", "settings": "dose 0.3-0.5 mg/kg"}, "Drosophila melanogaster [17]": {"system": "Drosophila melanogaster", "test": "Anti-alzheimer activity in ey-GAL4 driven UAS-amyloid beta (1 to 42) induced Drosophila melanogaster Oregon R-positive assessed as mild eye phenotype at 40 uM by Stereo zoom microscopic imaging analysis relative to control", "format": "functional"}, "[18]": {"test": "Antioxidant activity assessed as DPPH radical scavenging activity at 200 uM incubated for 30 mins relative to control", "format": "functional"}, "Drosophila melanogaster [19]": {"system": "Drosophila melanogaster", "test": "Anti-alzheimer activity in ey-GAL4 driven UAS-amyloid beta (1 to 42) induced Drosophila melanogaster Oregon R-positive assessed as mild eye phenotype at 10 uM by Stereo zoom microscopic imaging analysis relative to control", "format": "functional"}, "Drosophila melanogaster [20]": {"system": "Drosophila melanogaster", "test": "Inhibition of oxidative stress in y-GAL4 driven UAS-amyloid beta (1 to 42) induced Drosophila melanogaster Oregon R-positive assessed as reduction in ROS level at 10 to 20 uM incubated for 30 mins by H2DCFDA staining based analysis", "format": "functional, organism-based", "settings": "dose 10-20 µM"}, "Mus musculus [21]": {"system": "Mus musculus", "test": "Antioxidant activity against scopolamine-induced Swiss albino mouse model assessed as increase in catalase level in brain at 0.3 to 0.5 mg/kg, po by absorbance based analysis", "format": "functional, organism-based", "settings": "dose 0.3-0.5 mg/kg"}, "Acetylcholinesterase [22]": {"target": "T1, Acetylcholinesterase", "test": "Displacement of propidium iodide from human AChE PAS assessed as reduction in fluorescence intensity at 1 uM incubated for 6 hrs by fluorescence based analysis relative to control", "design": "scale not given: the % may be the effect or the level left"}, "Acetylcholinesterase [23]": {"target": "T1, Acetylcholinesterase", "test": "Inhibition of human recombinant AChE expressed in HEK293 cells using acetylthiocholine iodide as substrate preincubated with compound for 30 mins followed by substrate addition and measured after 30 mins by DTNB reagent based Ellman's method"}, "Acetylcholinesterase [24]": {"target": "T1, Acetylcholinesterase", "test": "Reversible binding affinity to human AChE using acetylthiocholine iodide as substrate assessed as equilibrium binding constant preincubated for 40 mins by DTNB reagent based Ellman's method"}, "PC-12 [25]": {"system": "PC-12", "test": "Induction of apoptosis in rat PC-12 cells assessed as viable cells at 10 uM incubated for 24 hrs by Annexin V/PI staining based flow cytometry analysis (reference value: 82.8%)", "format": "functional", "settings": "read-out: Activity"}, "Drosophila melanogaster [26]": {"system": "Drosophila melanogaster", "test": "Anti-alzheimer activity in ey-GAL4 driven UAS-amyloid beta (1 to 42) induced Drosophila melanogaster Oregon R-positive assessed as severe eye phenotype at 10 to 20 uM by Stereo zoom microscopic imaging analysis relative to control", "format": "functional", "settings": "dose 10-20 µM"}, "Drosophila melanogaster [27]": {"system": "Drosophila melanogaster", "test": "Anti-alzheimer activity in ey-GAL4 driven UAS-amyloid beta (1 to 42) induced Drosophila melanogaster Oregon R-positive assessed as severe eye phenotype at 10 uM by Stereo zoom microscopic imaging analysis relative to control", "format": "functional"}, "Mus musculus [28]": {"system": "Mus musculus", "test": "Neuroprotective activity against scopolamine-induced Swiss albino mouse model assessed as increase in NR4A2 mRNA level at 0.3 to 0.5 mg/kg, po measured after 6 days by RT-PCR analysis", "format": "functional, organism-based", "settings": "dose 0.3-0.5 mg/kg, time 6.0 day"}, "[29]": {"test": "Acute toxicity in Swiss albino mouse assessed as body weight gain at 175 mg/kg, po administered for 14 days", "format": "organism-based", "settings": "in vivo, 336 h, time 14 day"}, "[30]": {"test": "Permeability of the compound across blood brain barrier", "format": "ADME", "settings": "read-out: BBB"}, "Drosophila melanogaster [31]": {"system": "Drosophila melanogaster", "test": "Anti-alzheimer activity in ey-GAL4 driven UAS-amyloid beta (1 to 42) induced Drosophila melanogaster Oregon R-positive assessed as increase in superoxide level at 10 to 20 uM by fluorescence based analysis", "format": "functional, organism-based", "settings": "dose 10-20 µM"}}, "note": "Calls of active or inactive are those of the source. The calls are words filed in the database; no cut-off is given here."}
{"smiles": "C[C@@H](c1cccc(OC(=O)NCCc2c[nH]c3ccc(Cl)cc23)c1)N(C)C", "values": [{"measurement": "Activity", "setting": "[1]", "value": "inactive"}, {"measurement": "Activity", "setting": "[2]", "value": 20, "unit": "%"}, {"measurement": "inhibition", "setting": "[3]", "value": "Active"}, {"measurement": "Activity", "setting": "Drosophila melanogaster [4]", "value": 40, "unit": "%"}, {"measurement": "Activity", "setting": "Mus musculus [5]", "value": "Active"}, {"measurement": "Activity", "setting": "Mus musculus [6]", "value": "Active"}, {"measurement": "Activity", "setting": "Acetylcholinesterase [7]", "value": 21.9, "unit": "%"}, {"measurement": "Activity", "setting": "PC-12 [8]", "value": "Non-toxic"}, {"measurement": "Activity", "setting": "Mus musculus [9]", "value": "Active"}, {"measurement": "Activity", "setting": "Drosophila melanogaster [10]", "value": 43, "unit": "%"}, {"measurement": "Activity", "setting": "PC-12 [11]", "value": "Active"}, {"measurement": "IC50", "setting": "Cholinesterase", "value": 790, "unit": "pM"}, {"measurement": "Activity", "setting": "Mus musculus [12]", "value": "Active"}, {"measurement": "Activity", "setting": "Mus musculus [13]", "value": "Active"}, {"measurement": "Activity", "setting": "Mus musculus [14]", "value": "Active"}, {"measurement": "Activity", "setting": "Drosophila melanogaster [15]", "value": 36, "unit": "%"}, {"measurement": "Activity", "setting": "Mus musculus [16]", "value": "Active"}, {"measurement": "Activity", "setting": "Drosophila melanogaster [17]", "value": 43, "unit": "%"}, {"measurement": "Activity", "setting": "[18]", "value": 38.9, "unit": "%"}, {"measurement": "Activity", "setting": "Drosophila melanogaster [19]", "value": 36, "unit": "%"}, {"measurement": "Activity", "setting": "Drosophila melanogaster [20]", "value": "Active"}, {"measurement": "Activity", "setting": "Mus musculus [21]", "value": "Active"}, {"measurement": "Activity", "setting": "Acetylcholinesterase [22]", "value": 20.4, "unit": "%"}, {"measurement": "IC50", "setting": "Acetylcholinesterase [23]", "value": 7970, "unit": "pM"}, {"measurement": "Kb", "setting": "Acetylcholinesterase [24]", "value": 196, "unit": "pM"}, {"measurement": "viability at 10 µM", "setting": "PC-12 [25]", "value": 55.3, "unit": "%"}, {"measurement": "Activity", "setting": "Drosophila melanogaster [26]", "value": 20, "unit": "%"}, {"measurement": "Activity", "setting": "Drosophila melanogaster [27]", "value": 20, "unit": "%"}, {"measurement": "Activity", "setting": "Mus musculus [28]", "value": "Active"}, {"measurement": "Activity", "setting": "[29]", "value": "Non-toxic"}, {"measurement": "Papp", "setting": "[30]", "value": 13, "unit": "×10⁻⁶ cm/s"}, {"measurement": "Activity", "setting": "Drosophila melanogaster [31]", "value": "Active"}]}
